Source: ChEMBL document CHEMBL4706476, “Novel Tetrahydropyrido[4,3-d]pyrimidines as Potent Inhibitors of Chaperone Heat Shock Protein 90” (J Med Chem, 2016)
pIC50: −log10 of the molar value. Converted amounts (≈) assume the structure as drawn.

Experiments:
CYP3A4 = CYP3A4 (Homo sapiens, UniProt P08684); assay: Inhibition of CYP3A4 in human liver microsomes at 10 uM using midazolam as substrate preincubated for 5 mins followed by NADPH addition and measured after 20 mins by LC-MS/MS analysis relative to control; assay type: ADME; details: probe midazolam, time 25 min
[1] = Distribution coefficient, logD of compound at pH 7.4; assay type: physicochemical; details: octanol/water
[2] = target: Heat shock protein HSP 90-alpha (Homo sapiens, UniProt P07900); assay: Displacement of FITC-geldanamycin from N-terminal HSP90alpha (unknown origin) after 30 mins by fluorescence polarization competitive binding assay
[3] = Permeability of the compound at pH 7.4 by PAMPA; assay type: ADME; details: read-out: permeability
[4] = Intrinsic aqueous solubility of the compound; assay type: physicochemical
Endoplasmin = Endoplasmin (Homo sapiens, UniProt P14625); assay: Displacement of FITC-geldanamycin from N-terminal GRP94 (unknown origin) after 30 mins by fluorescence polarization competitive binding assay
[5] = Selectivity ratio of IC50 for inhibition of FITC-geldanamycin binding to N-terminal GRP94 (unknown origin) to IC50 for inhibition of FITC-geldanamycin binding to N-terminal HSP90alpha (unknown origin)
MDA-MB-231 = assay: Antiproliferative activity against human MDA-MB-231 assessed as reduction in cell viability incubated for 72 hrs by MTT assay; assay type: functional, cell-based; details: MDA-MB-231, 72 h
MDA-MB-468 = assay: Antiproliferative activity against human MDA-MB-468 assessed as reduction in cell viability incubated for 72 hrs by MTT assay; assay type: functional, cell-based; details: MDA-MB-468, 72 h
SK-BR-3 = assay: Antiproliferative activity against human SK-BR-3 assessed as reduction in cell viability incubated for 72 hrs by MTT assay; assay type: functional, cell-based; details: SK-BR-3, 72 h
T47D = assay: Antiproliferative activity against human T47D assessed as reduction in cell viability incubated for 72 hrs by MTT assay; assay type: functional, cell-based
BT-474 = assay: Antiproliferative activity against human BT-474 assessed as reduction in cell viability incubated for 72 hrs by MTT assay; assay type: functional, cell-based; details: BT-474, 72 h
U2OS = assay: Antiproliferative activity against human U2OS assessed as reduction in cell viability incubated for 72 hrs by MTT assay; assay type: functional, cell-based
MKN-28 = assay: Antiproliferative activity against human MKN-28 assessed as reduction in cell viability incubated for 72 hrs by MTT assay; assay type: functional, cell-based; details: MKN-28, 72 h
A549 = assay: Antiproliferative activity against human A549 assessed as reduction in cell viability incubated for 72 hrs by MTT assay; assay type: functional, cell-based; details: A549, 72 h
HepG2 = assay: Antiproliferative activity against human HepG2 assessed as reduction in cell viability incubated for 72 hrs by MTT assay; assay type: functional, cell-based; details: HepG2, 72 h
K562 = assay: Antiproliferative activity against human K562 assessed as reduction in cell viability incubated for 72 hrs by MTT assay; assay type: functional, cell-based; details: K562, 72 h
MV4-11 = assay: Antiproliferative activity against human MV4-11 assessed as reduction in cell viability incubated for 72 hrs by MTT assay; assay type: functional, cell-based; details: MV4-11, 72 h
L02 = assay: Cytotoxicity against human L02 cells assessed as reduction in cell viability incubated for 72 hrs by MTT assay; assay type: cell-based; details: L02, 72 h
[6] = target: T1, Heat shock protein HSP90 (Homo sapiens) (UniProt P07900+P08238); assay: Inhibition of HSP90 in human HCT-116 cells assessed as reduction in AKT protein expression after 24 hrs by Western blot analysis; assay type: cell-based; details: dose 0.01-3 µM
[7] = target: T1, Heat shock protein HSP90 (Homo sapiens); assay: Inhibition of HSP90 in human HCT-116 cells assessed as reduction in Erk protein expression after 24 hrs by Western blot analysis; assay type: cell-based; details: dose 0.01-3 µM
[8] = target: T1, Heat shock protein HSP90 (Homo sapiens); assay: Inhibition of HSP90 in human HCT-116 cells assessed as reduction in phosphorylated Erk after 24 hrs by Western blot analysis; assay type: cell-based; details: dose 0.01-3 µM
[9] = target: T1, Heat shock protein HSP90 (Homo sapiens); assay: Inhibition of HSP90 in human HCT-116 cells assessed as induction of HSP70 expression after 24 hrs by Western blot analysis; assay type: cell-based; details: dose 0.01-3 µM
[10] = Tmax in rat at 50 mg/kg, po measured upto 24 hrs by LC-MS/MS analysis; assay type: ADME, organism-based; details: in vivo
[11] = Cmax in rat at 50 mg/kg, po measured upto 24 hrs by LC-MS/MS analysis; assay type: ADME, organism-based; design: route oral, dose 50 mg/kg, time <=24; details: in vivo
[12] = Half life in human liver microsomes at 1 uM preincubated for 5 mins followed by NADPH addition and measured up to 120 mins by LC-MS/MS analysis; assay type: ADME, Microsome; details: 2 h, time <=125 min
[13] = Intrinsic clearance in human liver microsomes at 1 uM preincubated for 5 mins followed by NADPH addition and measured up to 120 mins by LC-MS/MS analysis; assay type: ADME, Microsome; details: 2 h, time <=125 min
[14] = Metabolic stability in human liver microsomes assessed as parent compound remaining at 1 uM preincubated for 5 mins followed by NADPH addition and measured up to 120 mins by LC-MS/MS analysis; assay type: ADME, Microsome; details: 2 h, time <=125 min
[15] = Half-life in rat at 50 mg/kg, po measured upto 24 hrs by LC-MS/MS analysis; assay type: ADME, organism-based; details: in vivo
[16] = Half-life in rat at 10 mg/kg, iv measured upto 24 hrs by LC-MS/MS analysis; assay type: ADME, organism-based; details: in vivo
[17] = Apparent clearance during terminal phase in rat at 50 mg/kg, po measured upto 24 hrs by LC-MS/MS analysis; assay type: ADME, organism-based; details: in vivo, read-out: CLz/F (converted)
[18] = Apparent clearance during terminal phase in rat at 10 mg/kg, iv measured upto 24 hrs by LC-MS/MS analysis; assay type: ADME, organism-based; details: in vivo
[19] = AUC (0 to t) in rat at 50 mg/kg, po measured upto 24 hrs by LC-MS/MS analysis; assay type: ADME, organism-based; design: route oral, dose 50 mg/kg, time <=24; details: in vivo
[20] = AUC (0 to t) in rat at 10 mg/kg, iv measured upto 24 hrs by LC-MS/MS analysis; assay type: ADME, organism-based; design: route intravenous, dose 10 mg/kg, time <=24; details: in vivo
[21] = Oral bioavailability in rat at 50 mg/kg measured upto 24 hrs by LC-MS/MS analysis; assay type: ADME, organism-based; details: in vivo
[22] = Apparent volume of distribution in rat at 50 mg/kg, po measured upto 24 hrs by LC-MS/MS analysis; assay type: ADME, organism-based; details: in vivo
[23] = Apparent volume of distribution in rat at 10 mg/kg, iv measured upto 24 hrs by LC-MS/MS analysis; assay type: ADME, organism-based; details: in vivo, read-out: Vz
HCT-116 = assay: cells; details: Homo sapiens, HCT-116, 72 h
Description: Antiproliferative activity against human HCT-116 cells assessed as reduction in cell viability incubated for 72 hrs by MTT assay

MCF7 = assay: cells; details: Homo sapiens, MCF7, 72 h
CYP2D6 = CYP2D6 (Homo sapiens, UniProt P10635); assay: Inhibition of CYP2D6 in human liver microsomes at 10 uM using dextromethorphan as substrate preincubated for 5 mins followed by NADPH addition and measured after 20 mins by LC-MS/MS analysis relative to control; assay type: ADME; details: probe dextromethorphan, time 25 min
Sequence of CYP2D6 (P10635 whole entry): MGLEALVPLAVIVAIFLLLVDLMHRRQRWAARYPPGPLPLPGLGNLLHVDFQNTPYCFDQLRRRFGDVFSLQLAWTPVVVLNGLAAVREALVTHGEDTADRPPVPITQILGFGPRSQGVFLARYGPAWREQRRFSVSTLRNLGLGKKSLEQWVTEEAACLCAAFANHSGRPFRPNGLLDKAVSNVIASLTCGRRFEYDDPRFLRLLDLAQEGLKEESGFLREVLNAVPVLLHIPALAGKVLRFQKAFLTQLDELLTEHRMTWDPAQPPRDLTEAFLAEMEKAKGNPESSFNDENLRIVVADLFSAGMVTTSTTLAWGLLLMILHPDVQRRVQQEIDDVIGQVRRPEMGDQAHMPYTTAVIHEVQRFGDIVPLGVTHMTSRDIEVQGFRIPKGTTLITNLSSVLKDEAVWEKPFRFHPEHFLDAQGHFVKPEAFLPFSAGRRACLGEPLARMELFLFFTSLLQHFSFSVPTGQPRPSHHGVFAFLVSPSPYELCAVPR

Sequence of Endoplasmin (P14625 whole entry): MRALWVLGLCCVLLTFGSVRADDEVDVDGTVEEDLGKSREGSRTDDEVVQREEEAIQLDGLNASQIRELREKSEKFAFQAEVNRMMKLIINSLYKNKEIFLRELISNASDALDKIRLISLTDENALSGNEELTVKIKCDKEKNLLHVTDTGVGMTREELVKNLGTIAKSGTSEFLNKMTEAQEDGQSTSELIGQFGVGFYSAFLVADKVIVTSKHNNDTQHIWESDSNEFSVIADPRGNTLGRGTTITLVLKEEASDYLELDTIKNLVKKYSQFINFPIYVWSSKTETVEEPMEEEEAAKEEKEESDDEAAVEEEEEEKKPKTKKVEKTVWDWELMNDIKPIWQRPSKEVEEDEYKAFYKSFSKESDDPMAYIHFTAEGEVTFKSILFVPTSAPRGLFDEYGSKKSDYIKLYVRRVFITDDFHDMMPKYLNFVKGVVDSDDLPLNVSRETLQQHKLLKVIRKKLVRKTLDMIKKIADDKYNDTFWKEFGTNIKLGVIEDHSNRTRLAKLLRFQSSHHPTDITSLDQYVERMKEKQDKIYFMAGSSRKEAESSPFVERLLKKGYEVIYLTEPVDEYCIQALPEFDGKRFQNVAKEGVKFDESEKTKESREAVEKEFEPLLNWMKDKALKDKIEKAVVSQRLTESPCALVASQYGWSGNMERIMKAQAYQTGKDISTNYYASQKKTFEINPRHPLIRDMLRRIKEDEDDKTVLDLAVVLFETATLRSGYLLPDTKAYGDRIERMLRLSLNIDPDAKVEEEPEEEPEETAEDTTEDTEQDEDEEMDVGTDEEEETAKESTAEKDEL
Sequence of CYP3A4 (P08684 whole entry): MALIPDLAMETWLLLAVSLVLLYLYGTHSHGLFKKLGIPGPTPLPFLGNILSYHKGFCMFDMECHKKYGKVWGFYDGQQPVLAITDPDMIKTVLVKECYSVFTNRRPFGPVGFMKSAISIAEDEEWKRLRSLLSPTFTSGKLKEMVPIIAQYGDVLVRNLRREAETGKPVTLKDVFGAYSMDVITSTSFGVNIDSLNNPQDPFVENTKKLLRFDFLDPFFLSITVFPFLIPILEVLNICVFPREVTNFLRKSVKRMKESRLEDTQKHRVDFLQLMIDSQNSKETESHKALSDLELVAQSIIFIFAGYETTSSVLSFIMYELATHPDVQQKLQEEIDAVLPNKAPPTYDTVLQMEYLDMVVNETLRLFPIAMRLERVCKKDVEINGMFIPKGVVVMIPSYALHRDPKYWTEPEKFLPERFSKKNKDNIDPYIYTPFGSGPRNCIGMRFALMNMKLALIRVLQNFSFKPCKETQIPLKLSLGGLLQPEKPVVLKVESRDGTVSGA

Row | Compound | logD [1] | pIC50 [2] | Papp [3] [×10⁻⁶ cm/s] | solubility [4] [µg/mL] | pIC50 (Endoplasmin) | Ratio IC50 [5] | pIC50 (MDA-MB-231) | pIC50 (MDA-MB-468) | pIC50 (SK-BR-3) | pIC50 (T47D) | pIC50 (BT-474) | pIC50 (U2OS) | pIC50 (MKN-28) | pIC50 (A549) | pIC50 (HepG2) | pIC50 (K562) | pIC50 (MV4-11) | pIC50 (L02) | pIC50 (HCT-116) | pIC50 (MCF7) | further results
1 | CC(=O)N1CCN(c2ccc(OCC3COC(Cn4ccnc4)(c4ccc(Cl)cc4Cl)O3)cc2)CC1 (stereo not given) [KETOCONAZOLE] |  |  |  |  |  |  |  |  |  |  |  |  |  |  |  |  |  |  |  |  | inhibition at 20 min, 10 µM (CYP3A4): 72%
2 | COCCOc1ncc2c(n1)CCN(C(=O)c1cc(C(C)C)c(O)cc1O)C2 | 2.14 | 7.72 | 55.5 | 140 (≈ 361 µM) | 6.70 | 10.4 | 6.89 | 6.76 | 6.76 | 6.74 | 6.84 | 6.97 | 6.49 | 6.77 | 6.92 | 6.96 | 7.51 | 4.56 | 6.77 | 6.92 | inhibition [6]: Dose-dependent effect; inhibition [7]: Dose-dependent effect; inhibition [8]: Dose-dependent effect; inhibition [9]: Dose-dependent effect; Tmax [10]: 0.5 h; Cmax [11]: 40.7 ng/mL; t1/2 [12]: 3.23 h; CLint [13]: 4.88 mL/min/kg; Stabilty [14]: 81.5%; half-life [15]: 7.4 h; half-life [16]: 4.16 h; CL/F [17]: 3320 mL/min/kg; CLz/F [18]: 235.3 mL/min/kg; AUC(0-t) at 24 h [19]: 265 ng·h/mL; AUC(0-t) at 24 h [20]: 757 ng·h/mL; bioavailability [21]: 7%; Vz [22]: 2072.05 L/kg; Vd [23]: 86.6 L/kg
3 | CCCOc1nc(OCCOC)nc2c1CN(C(=O)c1cc(C(C)C)c(O)cc1O)CC2 | 3.59 | 7.44 | 87.7 | 73.6 (≈ 165 µM) | 6.03 | 25.8 | 6.91 | 6.86 | 6.66 | 6.75 | 6.93 | 6.77 | 6.39 | 7.22 | 6.65 | 6.82 | 7.74 | 4.51 | 6.92 | 7.40 | inhibition [6]: Dose-dependent effect; inhibition [7]: Dose-dependent effect; inhibition [8]: Dose-dependent effect; inhibition [9]: Dose-dependent effect; t1/2 [12]: 1.15 h; CLint [13]: 13.7 mL/min/kg; Stabilty [14]: 59.5%
4 | CCOc1ncc2c(n1)CCN(C(=O)c1cc(C(C)C)c(O)cc1O)C2 | 2.95 | 7.25 | 72.4 | 66 (≈ 185 µM) | 6.25 | 10 |  |  |  |  |  |  |  |  |  |  |  |  | 6.12 | 6.21 | 
5 | C=C[C@H]1C[N@@]2CC[C@H]1C[C@@H]2[C@@H](O)c1ccnc2ccc(OC)cc12 [QUINIDINE] |  |  |  |  |  |  |  |  |  |  |  |  |  |  |  |  |  |  |  |  | inhibition at 20 min, 10 µM (CYP2D6): 89%
